Here are results for two compounds from paper PMC9867837 (Cancer letters, 2022).

Data set [1] concerns the target Stat5:Stat5 DNA-binding activity. Briefly: EMSA of Stat5:Stat5 DNA-binding activity in nuclear extracts of EGF-stimulated NIH3T3/hEGFR. Particulars: Fig. 1C, MGFe probe, 30 min. In kind it is biochemical, mouse. How it is done: These studies were carried out as previously described using the ^32P-labeled oligonucleotide probes, hSIE (high affinity sis-inducible element from the c-fos gene, m67 variant, 5^′-[…]) that binds Stat1 and Stat3 [11, 12] and the mammary gland factor element (MGFe) from the bovine β–casein gene promoter (sense strand, 5^′-[…]) that binds Stat5 and Stat1 [11, 12]. Details are presented in Supplementary Information, “Methods”. […]
min, prior to incubation with the radiolabeled probe for 30 min at 30 °C and subjecting to EMSA analysis.
In another case, the nuclear extract was pre-incubated with the radiolabeled probe for 30 min at 30 °C prior to incubation with increasing concentration of H182 at room temperature for 30 min and subjecting to EMSA analysis. Bands corresponding to Stats DNA- binding activities were scanned and quantified using ImageJ and plotted as a percentage of control (vehicle) against the concentration of the inhibitor, from which the IC50 values were derived .
Background: Mobility shift assays separate free from complexed probe on a gel.

A further data set has as its system MDA-MB-231 cells. Briefly: CyQuant viable cell number assay, MDA-MB-231. The data set is classed as cell-based, human. Particulars: Homo sapiens, MDA-MB-231, read-out: IC50 viable cell numbers, MDA-MB-231; CyQuant, 72 h. On the procedure:
(§1) CyQuant assay was performed to evaluate compounds as previously reported. Details are presented in Supplementary Information, “Methods”. […]
(§2) 1.2.6. Cell viability assays
(§3) CyQuant assay was performed to evaluate compounds as previously reported [1 -3] . Briefly, cells (5 x 10^3 per well, 100 µl) in culture in 96-well plates were treated once with 0 -10 µM concentrations of H120, H105, […]
(§4) concentration of H182 for 6 h and then treated with 0- 100 nM docetaxel or 0-20 µM cisplatin for a total of 72 h. Viable cell numbers were assessed by a CyQuant cell proliferation kit according to the manufacturer’s instructions (Thermo/Life Technologies Corp, Carlsbad, CA). Viable cell numbers were normalized to that of DMSO (control)-treated samples. […]

A further data set relates to MDA-MB-468 cells. Description: CyQuant viable cell number assay, MDA-MB-468. Particulars: read-out: IC50 viable cell numbers, MDA-MB-468. The data set is classed as cell-based, human. How it is done:
as §1, §2, §3, §4

For a further data set, the system named is MCF-10A cells. Briefly: CyQuant viable cell number assay, MCF-10A. Particulars: 72 h, read-out: IC50 viable cell numbers, MCF-10A. In kind it is cell-based, human. How it is done:
as §1, §2, §3, §4

The subject of a further data set is HCC1937 cells. Description: CyQuant viable cell number assay, HCC1937. Particulars: read-out: IC50 viable cell numbers, HCC1937. In kind it is cell-based, human. On the procedure: as §1, §2, §3, §4
Another data set in a line: Solubility. In kind it is physicochemical. How it is done: Solubility, human (HLM) and mouse liver microsomal (MLM), and plasma stability studies were performed by Eurofins Cerep Panlabs and Eurofin Discovery Services (www.eurofins.com/PharmaDiscovery), while protein binding studies were performed by Sanford Burnham Prebys Chemical Biology & Drug Discovery Core using standard protocols.

In data set [2] the test system is c-Myc, survivin and vascular endothelial growth factor (VEGF). Description: Immunoblotting for Stat3 downstream genes in cells. In kind it is cell-based, human. Particulars: MDA-MB-231, doses that inhibit Stat3 activity. On the procedure:
These studies were performed as previously described. Details are presented in Supplementary Information, “Methods”.
Aberrantly-active Stat3 promotes tumor cell growth and proliferation, survival, migration, invasion, and metastasis.
These studies were performed as previously described [1 -3] . Briefly, snap-frozen tumor tissues or cultured cells treated or not were harvested and whole-cell or tissue lysates were prepared in radioimmunoprecipitation assay (RIPA) buffer. Samples of equal total protein were subjected to SDS - PAGE and immunoblotting analysis. Primary antibodies used were anti- Stat3, pY705-Stat3, pS727Stat3, […]
Akt, pT202/Y204Erk1/2 (p44/42), Erk1/2, PARP , caspase 3, c-Myc, survivin, VEGF, β-actin, α/β-tubulin, and GAPDH. For the studies of the effects of cell density and confluence on pY705Stat3, cells were seeded […] in culture dishes. The next day, cells were untreated (DMSO control, […]
0.1%) or treated at the same time with 1 or 2 µM H182, allowed to incubate for the indicated time and then harvested for whole-cell lysate preparation and SDS -PAGE / immunoblotting analy sis. […]
concentration of H182 for 6 h and then treated with 0- 100 nM docetaxel or 0-20 µM cisplatin for a total of 72 h. Viable cell numbers were assessed by a CyQuant cell proliferation kit according to the manufacturer’s instructions (Thermo/Life Technologies Corp, Carlsbad, CA). […]
On the technique in general: In western blotting, separated proteins are transferred to a membrane and probed.

The target in another data set is T1, hERG (Homo sapiens, UniProt Q12809).
T1 construct: Eurofins-CEREP (contract research organisation that ran the assay)
T1 sequence (Q12809 whole entry): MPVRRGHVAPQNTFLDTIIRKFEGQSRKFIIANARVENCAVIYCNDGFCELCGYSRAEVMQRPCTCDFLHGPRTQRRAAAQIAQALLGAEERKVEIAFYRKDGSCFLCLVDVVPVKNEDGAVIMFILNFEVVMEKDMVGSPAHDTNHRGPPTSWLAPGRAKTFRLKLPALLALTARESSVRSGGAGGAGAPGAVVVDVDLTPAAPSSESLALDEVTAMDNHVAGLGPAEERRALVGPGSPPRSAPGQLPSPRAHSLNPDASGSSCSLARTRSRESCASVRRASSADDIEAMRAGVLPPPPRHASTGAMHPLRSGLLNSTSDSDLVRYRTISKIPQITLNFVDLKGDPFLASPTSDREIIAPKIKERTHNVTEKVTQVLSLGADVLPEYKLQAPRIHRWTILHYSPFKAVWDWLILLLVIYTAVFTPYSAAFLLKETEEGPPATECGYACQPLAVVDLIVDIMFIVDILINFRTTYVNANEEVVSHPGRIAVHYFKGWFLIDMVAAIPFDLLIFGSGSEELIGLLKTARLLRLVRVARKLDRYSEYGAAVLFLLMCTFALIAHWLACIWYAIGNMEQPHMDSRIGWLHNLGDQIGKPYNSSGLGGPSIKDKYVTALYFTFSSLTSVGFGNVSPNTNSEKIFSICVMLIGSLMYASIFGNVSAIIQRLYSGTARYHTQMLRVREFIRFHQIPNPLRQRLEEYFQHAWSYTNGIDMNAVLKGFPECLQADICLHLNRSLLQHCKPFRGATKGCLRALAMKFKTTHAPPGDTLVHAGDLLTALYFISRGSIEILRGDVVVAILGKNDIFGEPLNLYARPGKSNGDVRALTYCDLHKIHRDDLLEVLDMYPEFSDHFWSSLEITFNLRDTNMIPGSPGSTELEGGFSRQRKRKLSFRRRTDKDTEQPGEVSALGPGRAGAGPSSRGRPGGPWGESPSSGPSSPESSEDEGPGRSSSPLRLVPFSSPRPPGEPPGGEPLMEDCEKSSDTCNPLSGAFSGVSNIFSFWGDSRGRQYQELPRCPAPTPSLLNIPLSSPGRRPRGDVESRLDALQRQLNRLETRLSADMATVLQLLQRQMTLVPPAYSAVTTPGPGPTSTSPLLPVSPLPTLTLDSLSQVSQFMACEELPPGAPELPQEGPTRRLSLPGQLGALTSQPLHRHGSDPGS
Briefly: CEREP SafetyScreen44, hERG. In kind it is binding. Particulars: 10 μM H182. On the procedure:
The in vivo activity of a compound is influenced by its overall bioavailability, which is also driven by parameters, such as solubility, permeability, and metabolism. […] These values are all above the industry cut-off of 60 μg/ml. […] It has CLint in human hepatocytes of 16 μL/min/10^6 cells, which falls into moderate stability range [43].

[3] abbreviates: aqueous buffer, PBS pH 7.4, read-out: Solubility PBS pH 7.4.

SMILES strings stand for the structures. Values after ≈ are worked out from the molar mass of the structure shown. Values joined by “and” are separate entries in the source; they are usually repeats but may differ in a detail not shown here. Identical values can stand only once. Like-named read-outs stand apart in the source and are kept apart here.

By IC50 is commonly meant the point on the concentration scale where inhibition reaches its midpoint. Broadly, the solubility is the concentration that dissolves in the medium under given conditions. The term inhibition denotes the relative decrease from the control value, in per cent. A low value points to little suppression.

As to `O=C([C@H]1CCN1S(=O)(=O)c1c(F)c(F)c(F)c(F)c1F)N(Cc1ccc(C2CCCCC2)cn1)c1ccc2c(=O)[nH]cnc2c1` [Compound H172], the IC50 in data set [1] is 20 µM; in the data set on MDA-MB-231 cells, 3.3 µM; in the data set with MDA-MB-468 cells (Homo sapiens, MDA-MB-468, 72 h), 1.5 µM; in the data set on MCF-10A cells, 4 µM; in the data set on MCF-10A cells (Homo sapiens, MCF-10A), 3.8 to 4 µM; with HCC1937 cells (72 h) it was 4.8 µM. Further, the IC50 with HCC1937 cells (Homo sapiens, HCC1937, 72 h) is 3.6 to 4.3 µM. Moreover, the solubility in “Solubility” (setting [3]) is 6.3 µg/mL (≈ 9.73 µM). The “Solubility SGF” value in “Solubility” (simulated gastric fluid) is 104 µg/mL (≈ 161 µM). Also, the “Solubility SIF” value in “Solubility” (simulated intestinal fluid) was 123 µg/mL (≈ 190 µM).
Turning to `O=C([C@H]1CCN1S(=O)(=O)c1c(F)c(F)c(F)c(F)c1F)N(Cc1ccc(C2CCCCC2)cn1)c1ccc2c(=O)[nH]ncc2c1` [Compound H182], the half-maximal inhibitory concentration (IC50) in data set [1] was 19.1 µM; in the data set with MDA-MB-231 cells, 1 µM; with MDA-MB-468 cells (72 h), 1.1 µM; in the data set on MDA-MB-468 cells (Homo sapiens, MDA-MB-468, 72 h) it was 1 µM; in the data set with MCF-10A cells it was 3.8 µM; in the data set with MCF-10A cells (Homo sapiens, MCF-10A), 3.8 to 4 µM. In addition, the IC50 in the data set on HCC1937 cells (72 h) is 3 µM; in the data set with HCC1937 cells (Homo sapiens, HCC1937, 72 h), 3.6 to 4.3 µM. Further, the “Expression of c-Myc, survivin and VEGF in cells” value in data set [2] is reported as “rapidly suppressed”. Besides, the solubility was 3 µg/mL (≈ 4.63 µM) in “Solubility” (setting [3]); 130 µg/mL and 132 µg/mL in the data set “Solubility” (simulated gastric fluid, read-out: Solubility SGF); 128 µg/mL (≈ 198 µM) in “Solubility” (simulated intestinal fluid, fassgf or other biorelevant, read-out: Solubility SIF). The inhibition at 10 µM at hERG is more than 80%.
